These results are taken from patent US20260193229A1, “BRISC DEUBIQUITINATING ENZYME INHIBITORS” (THE TRUSTEES OF THE UNIVERSITY OF PENNSYLVANIA, priority 2022, published 2026).

Structures are written as SMILES.

The first data set relates to human cells. In words: Cellular toxicity in human cells. The format is cell-based. As to conditions: 5 μM.
Consider `CS(=O)(=O)n1cc(NC(=O)c2c(Cl)cccc2Cl)c(C(=O)NC2CCNCC2)n1` [Compound 2, 4-(2,6-dichlorobenzamido)-1-(methylsulfonyl)-N-(piperidin-4-yl)-1H-pyrazole-3-carboxamide], for which the cellular toxicity result is “no detectable cellular toxicity”.

In a further data set the target is T1, BRISC (Homo sapiens, UniProt P46736+Q15018).
T1 construct: made in house; host or cells: insect cells (MultiBac baculovirus)
In words: BRISC DUB inhibition assay with quenched K63-linked di-ubiquitin substrate (TAMRA fluorescence). It is filed as biochemical. The following applies: Table 1, Activity Range Table. As for the experimental part:
High throughput screening. A baculoviral expression system was established to purify milligram quantities of the entire BRISC complex from insect cells. The MultiBac system was used to clone all 4 components of the BRISC complex into one vector which was then packaged into the baculovirus genome using the methods described in Zeqiraj et al., 2015 (Mol. Cell).
The assay buffer included: 50 mM HEPES-NaOH, pH 7.0; 100 mM NaCl; 1 mM DTT; 1 mg/ml BSA; and 0.03% Brij-35. BRISC was assayed at 1 nM (final concentration) with the substrate at 500 nM (final concentration). The final reaction volume was 20 μl in each 384 plate well (Corning, #3573; black, low flange, flat bottom) with a final concentration of compounds of 10 μM.
A 5 ml of enzyme solution with BRISC at 2 nM in assay buffer was made by adding 10 μl of BRISC working stock (1 μM) to 5 ml of assay buffer. A 5 ml of substrate solution was made with […] of K63-diUbiquitin (made in-house) plus […] of IQF K63-diUbiquitin by adding the appropriate volumes of diUbiquitins to 5 ml of assay buffer. 45 μL of BRISC (enzyme solution) was dispensed into columns 1-11 of a 96 well PCR plate (skirted). Buffer was only dispensed in column 12 (no enzyme control). 45 μl of substrate solution was dispensed into columns 1-12 of a 96 well PCR plate (skirted). The plate was spun down at 3000 rpm (bench top centrifuge) at room temp for 2 min to remove any air bubbles. Using a Biomek FX, liquid handler (Bekman), 10 μl of BRISC (enzyme solution) was dispensed into the 4 quadrants of a 384 well plate. 200 nl of compounds was dispensed into each well of the 384 plates using the pin tool (columns A and B usually contain DMSO only, and serve as controls), and the plates were incubated for 10-15 minutes at room temperature. 10 μl of substrate solution was dispensed into the 4 quadrants of the 384 well plate. The plate was then incubated for 30 min at room temperature in the dark and read with settings suitable for detecting TAMRA fluorescence (excitation wavelength of 540 nm and emission wavelength of 580 nm). A PHERAStar plate (BMG labtech) reader was used with a gain value of 570. The Intensity/Background (I/Bg), defined as [(Average of columns 1 and 2; DMSO controls)/(Average of columns 23 and 24; no enzyme controls)], were about 5.
The activities of the compounds disclosed in the present disclosure in inhibiting BRCC36 enzyme activity was measured in accordance with the method disclosed in Example 2.
With `O=C(NC1CNC1)c1nn(C(=O)c2c(Cl)cccc2Cl)cc1NC(=O)c1c(Cl)cccc1Cl` [Compound 17], the IC50 (as a rule, the midpoint of a concentration-inhibition curve) lay in the range of 10 to 50 µM. Turning to `COc1ccccc1NC(=O)n1cc(NC(=O)c2c(Cl)cccc2Cl)c(C(=O)NC2CCNCC2)n1` [Compound 18, 4-(2,6-dichlorobenzamido)-N1-(2-methoxyphenyl)-N3-(piperidin-4-yl)-1H-pyrazole-1,3-dicarboxamide], the IC50 is 10 to 50 µM. Same read-out and setting: the value for `O=C(NC1CCNCC1)c1nn(S(=O)(=O)CCc2ccc(Cl)cc2)cc1NC(=O)c1c(Cl)cccc1Cl` [Compound 31] was 1 to 10 µM; that for `O=C(N[C@H]1CCNC1)c1nn(C(=O)c2c(Cl)cccc2Cl)cc1NC(=O)c1c(Cl)cccc1Cl` [Compound 9] was 1 to 10 µM.

With `CC1CNCCC1NC(=O)c1nn(C(=O)c2c(Cl)cccc2Cl)cc1NC(=O)c1c(Cl)cccc1Cl` (stereo not shown) [Compound 12], the IC50 lay in the range of 1 to 10 µM. On to `CN(C(=O)c1nn(C(=O)c2c(Cl)cccc2Cl)cc1NC(=O)c1c(Cl)cccc1Cl)C1CNC1` [Compound 15], for which the IC50 was 10 to 50 µM.

With `COc1ccccc1NC(=O)n1cc(NC(=O)c2c(Cl)cccc2Cl)c(C(=O)NC2CCNCC2)n1` [Compound 19], the IC50 is 10 to 50 µM.

With `O=C(NC1CCNCC1)c1nn(S(=O)(=O)CCc2ccccc2)cc1NC(=O)c1c(Cl)cccc1Cl` [Compound 6], the IC50 was 1 to 10 µM. `CN1CCC(NC(=O)c2nn(C(=O)c3c(Cl)cccc3Cl)cc2NC(=O)c2c(Cl)cccc2Cl)CC1` [Compound 37] showed an IC50 of 1 to 10 µM. As for `C#CCCCCOC(=O)COc1ccc(S(=O)(=O)n2cc(NC(=O)c3c(Cl)cccc3Cl)c(C(=O)NC3CCNCC3)n2)cc1` [Compound 32, Hex-5-ynyl 2-(4-(4-(2,6-dichlorobenzamido)-3-(piperidin-4-ylcarbamoyl)-1H-pyrazol-1-ylsulfonyl)phenoxy)acetate], the IC50 lay within 10 to 50 µM. For the compound `O=C(NC1CCNCC1)c1nn(S(=O)(=O)c2cc(Cl)cc(Cl)c2)cc1NC(=O)c1c(Cl)cccc1Cl` [Compound 3], the IC50 lay in the range of 1 to 10 µM.

In turn, `O=C(NC1CCNCC1)c1nn(S(=O)(=O)c2ccccc2Cl)cc1NC(=O)c1c(Cl)cccc1Cl` [Compound 25] had an IC50 of 50 to 300 µM. `O=C(NC1CCNCC1)c1nn(C(=O)Nc2cccc(Cl)c2)cc1NC(=O)c1c(Cl)cccc1Cl` [Compound 36] gave an IC50 of 50 to 300 µM.

Take `O=C(N[C@@H]1CCNC1)c1nn(C(=O)c2c(Cl)cccc2Cl)cc1NC(=O)c1c(Cl)cccc1Cl` [Compound 8]: the IC50 lay in the range of 1 to 10 µM. The compound `NCCCNC(=O)c1nn(C(=O)c2c(Cl)cccc2Cl)cc1NC(=O)c1c(Cl)cccc1Cl` [Compound 10] returned an IC50 of 1 to 10 µM. Consider `NCCCOc1ccc(S(=O)(=O)n2cc(NC(=O)c3c(Cl)cccc3Cl)c(C(=O)NC3CCNCC3)n2)cc1` [Compound 34, 1-(4-(3-aminopropoxy)phenylsulfonyl)-4-(2,6-dichlorobenzamido)-N-(piperidin-4-yl)-1H-pyrazole-3-carboxamide], for which the IC50 is 50 to 300 µM. The compound `C[N+]1(C)CCC(NC(=O)c2nn(C(=O)c3c(Cl)cccc3Cl)cc2NC(=O)c2c(Cl)cccc2Cl)CC1` [Compound 29] came in with a concentration for half-maximal inhibition (IC50) of 10 to 50 µM. In turn, `O=C(NC1CCNCC1)c1nn(S(=O)(=O)c2cccc(Cl)c2)cc1NC(=O)c1c(Cl)cccc1Cl` [Compound 24] yielded a half-maximal inhibitory concentration (IC50) of 50 to 300 µM. In turn, `O=C(Nc1cn(C(=O)c2c(Cl)cccc2Cl)nc1C(=O)N1CCNCC1)c1c(Cl)cccc1Cl` [Compound 7] yielded an IC50 of 1 to 10 µM. Still for that read-out and setting: to `O=C(NC1C2CNCC21)c1nn(C(=O)c2c(Cl)cccc2Cl)cc1NC(=O)c1c(Cl)cccc1Cl` (stereo not shown) [Compound 13] belongs 1 to 10 µM; to `O=C(NC1CCNCC1)c1nn(S(=O)(=O)c2ccc(Cl)cc2)cc1NC(=O)c1c(Cl)cccc1Cl` [Compound 4], 1 to 10 µM. `CN(C(=O)c1nn(C(=O)c2c(Cl)cccc2Cl)cc1NC(=O)c1c(Cl)cccc1Cl)C1CCNCC1` [Compound 11] had an IC50 of 1 to 10 µM. In the case of `O=C(NC1CCNCC1)c1nn(S(=O)(=O)c2ccccc2)cc1NC(=O)c1c(Cl)cccc1Cl` [Compound 5], the IC50 lay in the range of 10 to 50 µM. As to `O=C(NC1CCNCC1)c1nn(C(=O)Nc2ccc(Cl)cc2)cc1NC(=O)c1c(Cl)cccc1Cl` [Compound 35], the IC50 is 50 to 300 µM. The same measure, in the same setting: the value for `O=C(NCCN1CCCC1)c1nn(C(=O)c2c(Cl)cccc2Cl)cc1NC(=O)c1c(Cl)cccc1Cl` [Compound 20] was 10 to 50 µM; that for `COC(=O)COc1ccc(S(=O)(=O)n2cc(NC(=O)c3c(Cl)cccc3Cl)c(C(=O)NC3CCNCC3)n2)cc1` [Compound 33, Methyl 2-(4-(4-(2,6-dichlorobenzamido)-3-(piperidin-4-ylcarbamoyl)-1H-pyrazol-1-ylsulfonyl)phenoxy)acetate] was 50 to 300 µM; that for `O=C(NC1CCNCC1)c1nn(S(=O)(=O)c2cc(C(F)(F)F)ccc2Cl)cc1NC(=O)c1c(Cl)cccc1Cl` [Compound 26] was 50 to 300 µM.

In turn, `CS(=O)(=O)n1cc(NC(=O)c2c(Cl)cccc2Cl)c(C(=O)NC2CCNCC2)n1` [Compound 2, 4-(2,6-dichlorobenzamido)-1-(methylsulfonyl)-N-(piperidin-4-yl)-1H-pyrazole-3-carboxamide] showed an IC50 of 1 to 10 µM. On the same count and under the same terms, the value for `COC(=O)c1ccccc1NC(=O)n1cc(NC(=O)c2c(Cl)cccc2Cl)c(C(=O)NCCCN2CCCC2)n1` [Compound 21] was 50 to 300 µM. Compound `O=C(NC1CCNCC1)c1nn(S(=O)(=O)c2ccc(OCCCN3C(=O)c4ccccc4C3=O)cc2)cc1NC(=O)c1c(Cl)cccc1Cl` [Compound 30, 4-(2,6-dichlorobenzamido)-1-(4-(3-(1,3-dioxoisoindolin-2-yl)propoxy)phenylsulfonyl)-N-(piperidin-4-yl)-1H-pyrazole-3-carboxamide] had an IC50 of 1 to 10 µM. On to `O=C(NC1CCNCC1)c1nn(S(=O)(=O)c2cc(Cl)cc(C(F)(F)F)c2)cc1NC(=O)c1c(Cl)cccc1Cl` [Compound 27], for which the IC50 is 50 to 300 µM.

Staying with this data set, now noted: Table 2, method of Example 2; read-out: BRISC IC50 μM Range.
Consider `C[C@@H]1CNCCN1C(=O)c1nn(C(=O)c2c(Cl)cccc2Cl)cc1NC(=O)c1c(Cl)cccc1Cl` [Compound 55], for which the IC50 lay within 1 to 10 µM. In the case of `Cc1ncsc1-c1ccc(CNC(=O)[C@@H]2C[C@H](O)CN2C(=O)[C@@H](NC(=O)COCCOCCOCCn2cc(CCCCOc3ccc(S(=O)(=O)n4cc(NC(=O)c5c(Cl)cccc5Cl)c(C(=O)NC5CCNCC5)n4)cc3)nn2)C(C)(C)C)cc1` [Compound 43, 4-(2,6-dichlorobenzamido)-1-(4-(4-(1-((S)-13-((2S,4S)-4-hydroxy-2-(4-(4-methylthiazol-5-yl)benzylcarbamoyl)pyrrolidine-1-carbonyl)-14,14-dimethyl-11-oxo-3,6,9-trioxa-12-azapentadecyl)-1H-1,2,3-triazol-4-yl)butoxy)phenylsulfonyl)-N-(piperidin-4-yl)-1H-pyrazole-3-carboxamide], the half-maximal inhibitory concentration (IC50) fell in the range of 0.1 to 1 µM. Consider `CCOc1cc(C(C)(C)C)ccc1C1=N[C@@](C)(c2ccc(Cl)cc2)[C@@](C)(c2ccc(Cl)cc2)N1C(=O)N1CCN(CC(=O)NCCOCCOCCn2cc(CCCCOc3ccc(S(=O)(=O)n4cc(NC(=O)c5c(Cl)cccc5Cl)c(C(=O)NC5CCNCC5)n4)cc3)nn2)CC1` [Compound 42, 1-(4-(4-(1-(2-(2-(2-(2-(4-((4S,5R)-2-(4-Tert-butyl-2-ethoxyphenyl)-4,5-bis(4-chlorophenyl)-4,5-dimethyl-4,5-dihydro-1H-imidazole-1-carbonyl)piperazin-1-yl)acetamido)ethoxy)ethoxy)ethyl)-1H-1,2,3-triazol-4-yl)butoxy)phenylsulfonyl)-4-(2,6-dichlorobenzamido)-N-(piperidin-4-yl)-1H-pyrazole-3-carboxamide], for which the 50% inhibitory concentration (IC50) is 0.1 to 1 µM. For `C#CCCCCOc1ccc(S(=O)(=O)n2cc(NC(=O)c3c(Cl)cccc3Cl)c(C(=O)NC3CCNCC3)n2)cc1` [Compound 41, 4-(2,6-Dichlorobenzamido)-1-(4-(hex-5-ynyloxy)phenylsulfonyl)-N-(piperidin-4-yl)-1H-pyrazole-3-carboxamide], the IC50 was in the range of 1 to 10 µM. For `COC(=O)c1cnc2c(SCc3ccccn3)cccc2c1` [Compound 54], the IC50 was 10 to 50 µM.
